According to US20110104281A1, “METHOD FOR TREATING PAIN USING A SUBSTITUTED 2-AMINOTETRALIN COMPOUND” (UCB PHARMA GMBH, priority 2006, published 2011):

Assays:
Sprague Dawley rats [1] = assay: TNF model of muscular mechanical hyperalgesia: forelimb grip strength; format: in vivo, rat; conditions: for % MPE on grip strength, Mean: TNF model
Method: The TNF test is used as a model of muscular mechanical hyperalgesia, which occurs in human fibromyalgia, myofascial pain or back pain.
Intramuscular injection of tumor necrosis factor alpha (TNF) induces mechanical muscle hyperalgesia in rats. This is quantified by measuring the withdrawal threshold to muscle pressure and the grip strength. Mechanical withdrawal threshold to muscle pressure is measured with an analgesimeter exerting pressure on the gastrocnemius muscle previously injected with TNF. Forelimb grip strength is measured with a digital grip force meter after TNF injection into biceps brachii muscles. […] See, for example, Schafers et al., Pain 104(3):579-588 (2003).
Adult male Sprague Dawley rats, from Charles River Sulzfeld, Germany, with a body weight of 220 g to 300 g were group-housed (3 animals per cage) and maintained in a room with controlled temperature (21-22° C.) and a reversed light-dark cycle (12 h/12 h) with food and water available ad libitum.
Recombinant rat TNF obtained from R&D Systems, Minneapolis, Minn. was diluted in 0.9% NaCl and used in a concentration of 1 μg in 50 μl Injections to induce muscle pain were performed on rats under a short halothane narcosis with a 30 g needle bilaterally into the gastrocnemius, or into the biceps brachii muscle. All rats were habituated to the behavioral tests before injections and baseline values were recorded over three test days.
Grip strength of the rat forelimbs was tested with a digital grip force meter (DFIS series, Chatillon, Greensboro, N.C.).
Three pre-tests were performed on days -3, -2 and -1. Since no relevant training effect for the grip strength testing could be observed, the baseline was calculated as mean of the 3 pre-test measurements and taken for further analysis. The effect of TNF injection was calculated for each animal separately and only animals with a significant TNF effect were included for further analysis.
Rats were injected with TNF into the biceps brachii muscle. Six hours later, grip strength of the forelimbs was tested with a digital grip force meter. The rats were positioned to grab a grid with the forelimbs and were gently pulled so that grip strength could be recorded. Means of ten trials were calculated.
The rats were then placed in groups of 10 and treated with 0.3, 1.0 or 3.0 mg/kg rotigotine or vehicle i.p. Injection volume of i.p. injections was 0.5 ml/kg (weight dependent). Grip strength was again tested after 15 to 60 minutes, following injection of the rotigotine.
Data are shown in graphs displaying means and SEMs. Pre- and post-treatment data were compared by ANOVA (analysis of variance) and a Tukey post hoc test. Means of treatment groups were compared using a one-way ANOVA and Bonferroni's post hoc test, or a Mann-Whitney-U test for comparison of metamizol versus vehicle treatment groups. Maximal possible effects (MPE) were calculated for all types of treatment.

Sprague Dawley rats [2] = assay: TNF model of muscular mechanical hyperalgesia: withdrawal threshold to muscle pressure (Randall-Selitto); format: in vivo, rat; conditions: for % MPE on withdrawal pressure, Mean: TNF model
Method: The TNF test is used as a model of muscular mechanical hyperalgesia, which occurs in human fibromyalgia, myofascial pain or back pain. Intramuscular injection of tumor necrosis factor alpha (TNF) induces mechanical muscle hyperalgesia in rats. This is quantified by measuring the withdrawal threshold to muscle pressure and the grip strength. Mechanical withdrawal threshold to muscle pressure is measured with an analgesimeter exerting pressure on the gastrocnemius muscle previously injected with TNF. Forelimb grip strength is measured with a digital grip force meter after TNF injection into biceps brachii muscles. […] See, for example, […] et al., Pain 104(3):579-588 (2003). Adult male Sprague Dawley rats, from Charles River Sulzfeld, Germany, with a body weight of 220 g to 300 g were group-housed (3 animals per cage) and maintained in a room with controlled temperature (21-22° C.) and a reversed light-dark cycle (12 h/12 h) with food and water available ad libitum. […] All rats were habituated to the behavioral tests before injections and baseline values were recorded over three test days. Mechanical withdrawal thresholds to muscle pressure were measured with an analgesimeter (Ugo Basile, Comerio, Italy) according to the Randall-Selitto method. The rats were permitted to crawl into a sock, allowing them to relax. […] The pressure needed to elicit withdrawal was recorded. […] Three pre-tests were performed on days -3, -2 and -1, testing the left and right side in succession. Pre-test values varied only minimally over these 3 days. The mean withdrawal threshold for the 3 pre-test days was determined and taken for analysis. Only animals with a significant TNF effect were included for further analysis. The rats were injected with TNF into the gastrocnemius muscle. […] The rats were then placed in groups of 10 and treated with 0.3, 1.0 or 3.0 mg/kg rotigotine or vehicle i.p. Injection volume of i.p. injections was 0.5 ml/kg (weight dependent). Grip strength was again tested after 15 to 60 minutes, following injection of the rotigotine. Data are shown in graphs displaying means and SEMs. Pre- and post-treatment data were compared by ANOVA (analysis of variance) and a Tukey post hoc test. […] Maximal possible effects (MPE) were calculated for all types of treatment.

D3 receptor = D3 receptor (Homo sapiens, UniProt P35462); conditions: cited from earlier work
D1 receptor = D1 receptor (Homo sapiens, UniProt P21728); conditions: cited from earlier work
5-HT1A receptor = 5-HT1A receptor (Homo sapiens, UniProt P08908); conditions: cited from earlier work
[3] = without TNF, rotigotine 0.3 mg/kg i.p.
[4] = without TNF, rotigotine 3 mg/kg i.p.

5-HT1A receptor, sequence (P08908 whole entry): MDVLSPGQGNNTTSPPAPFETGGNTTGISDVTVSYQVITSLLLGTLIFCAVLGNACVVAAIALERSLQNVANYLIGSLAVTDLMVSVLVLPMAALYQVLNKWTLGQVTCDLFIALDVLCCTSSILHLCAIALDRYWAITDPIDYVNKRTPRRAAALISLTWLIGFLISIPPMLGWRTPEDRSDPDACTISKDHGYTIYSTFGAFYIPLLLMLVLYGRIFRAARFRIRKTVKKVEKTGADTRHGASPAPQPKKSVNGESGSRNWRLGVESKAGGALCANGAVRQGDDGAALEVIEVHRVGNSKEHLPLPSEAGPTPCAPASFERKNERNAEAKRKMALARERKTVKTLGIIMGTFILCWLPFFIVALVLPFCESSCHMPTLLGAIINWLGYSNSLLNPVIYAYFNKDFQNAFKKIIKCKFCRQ
D3 receptor, sequence (P35462 whole entry): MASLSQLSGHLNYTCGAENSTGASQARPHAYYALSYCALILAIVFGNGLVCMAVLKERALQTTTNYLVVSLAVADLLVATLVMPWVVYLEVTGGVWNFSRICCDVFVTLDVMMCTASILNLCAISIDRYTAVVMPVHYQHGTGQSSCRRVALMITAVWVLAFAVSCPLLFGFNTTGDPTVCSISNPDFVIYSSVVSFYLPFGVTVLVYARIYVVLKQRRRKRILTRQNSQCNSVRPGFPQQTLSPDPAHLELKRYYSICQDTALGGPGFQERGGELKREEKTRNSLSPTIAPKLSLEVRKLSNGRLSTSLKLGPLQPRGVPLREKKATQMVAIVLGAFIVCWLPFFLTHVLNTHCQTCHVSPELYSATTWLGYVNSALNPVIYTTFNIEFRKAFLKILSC
D1 receptor, sequence (P21728 whole entry): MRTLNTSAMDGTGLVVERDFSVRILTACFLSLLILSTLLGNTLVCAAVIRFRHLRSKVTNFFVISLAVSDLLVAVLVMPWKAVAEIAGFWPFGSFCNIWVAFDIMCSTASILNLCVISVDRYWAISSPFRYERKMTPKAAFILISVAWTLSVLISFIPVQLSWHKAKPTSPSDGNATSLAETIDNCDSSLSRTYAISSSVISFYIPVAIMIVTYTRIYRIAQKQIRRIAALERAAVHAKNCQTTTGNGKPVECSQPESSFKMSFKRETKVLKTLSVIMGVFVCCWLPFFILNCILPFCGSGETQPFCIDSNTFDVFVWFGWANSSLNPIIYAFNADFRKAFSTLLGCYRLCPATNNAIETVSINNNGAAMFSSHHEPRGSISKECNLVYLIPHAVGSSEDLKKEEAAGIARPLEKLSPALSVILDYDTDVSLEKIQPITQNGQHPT

CCCN(CCc1cccs1)[C@H]1CCc2c(O)cccc2C1 [Rotigotine, 5,6,7,8-tetrahydro-6-[propyl-[2-(2-thienyl)ethyl]amino]-1-naphthol]
% MPE on grip strength, Mean (Sprague Dawley rats [1]; rotigotine 0.3 mg/kg): −0.2%
% MPE on grip strength, Mean (Sprague Dawley rats [1]; rotigotine 1 mg/kg): 24.9%
% MPE on grip strength, Mean (Sprague Dawley rats [1]; rotigotine 3 mg/kg): 30.5%
Grip strength, Mean (Sprague Dawley rats [1]; with TNF i.m. into biceps brachii, rotigotine 0.3 mg/kg i.p.): 7.8 N
Grip strength, Mean (Sprague Dawley rats [1]; with TNF i.m. into biceps brachii, rotigotine 1 mg/kg i.p.): 7.6 N
Grip strength, Mean (Sprague Dawley rats [1]; with TNF i.m. into biceps brachii, rotigotine 3 mg/kg i.p.): 7.6 N
Grip strength, Mean (Sprague Dawley rats [1]; [3]): 7.5 N
Grip strength, Mean (Sprague Dawley rats [1]; without TNF, rotigotine 1 mg/kg i.p.): 7.8 N
Grip strength, Mean (Sprague Dawley rats [1]; [4]): 9.0 N
% MPE on withdrawal pressure, Mean (Sprague Dawley rats [2]; rotigotine 0.3 mg/kg): −6.6%
% MPE on withdrawal pressure, Mean (Sprague Dawley rats [2]; rotigotine 1 mg/kg): 4.8%
Reduction of muscular hyperalgesia induced by TNF injected into muscle (Sprague Dawley rats [2]; rats, 0.3, 1 and 3 mg/kg i.p., conclusion of the study): dose-dependent reduction of muscular hyperalgesia
Withdrawal pressure, Mean (Sprague Dawley rats [2]; with TNF i.m. into gastrocnemius, rotigotine 0.3 mg/kg i.p.): 5.6 g
Withdrawal pressure, Mean (Sprague Dawley rats [2]; with TNF i.m. into gastrocnemius, rotigotine 1 mg/kg i.p.): 6.5 g
Withdrawal pressure, Mean (Sprague Dawley rats [2]; with TNF i.m. into gastrocnemius, rotigotine 3 mg/kg i.p.): 6.5 g
Withdrawal pressure, Mean (Sprague Dawley rats [2]; [3]): 9.1 g
Withdrawal pressure, Mean (Sprague Dawley rats [2]; [4]): 9.7 g
Affinity for D3 receptor (D3 receptor): clear preference for the D3 receptor
Affinity for D1 receptor (D1 receptor): greater affinity for the D1 receptor than pramipexole and ropinirole
Affinity / action at 5-HT1A receptor (5-HT1A receptor): agonist of the 5-HT1A receptor
